Assays:
GR = target: T1, GR (Homo sapiens, UniProt P04150); assay: cell-based
T1 sequence (P04150 1-777): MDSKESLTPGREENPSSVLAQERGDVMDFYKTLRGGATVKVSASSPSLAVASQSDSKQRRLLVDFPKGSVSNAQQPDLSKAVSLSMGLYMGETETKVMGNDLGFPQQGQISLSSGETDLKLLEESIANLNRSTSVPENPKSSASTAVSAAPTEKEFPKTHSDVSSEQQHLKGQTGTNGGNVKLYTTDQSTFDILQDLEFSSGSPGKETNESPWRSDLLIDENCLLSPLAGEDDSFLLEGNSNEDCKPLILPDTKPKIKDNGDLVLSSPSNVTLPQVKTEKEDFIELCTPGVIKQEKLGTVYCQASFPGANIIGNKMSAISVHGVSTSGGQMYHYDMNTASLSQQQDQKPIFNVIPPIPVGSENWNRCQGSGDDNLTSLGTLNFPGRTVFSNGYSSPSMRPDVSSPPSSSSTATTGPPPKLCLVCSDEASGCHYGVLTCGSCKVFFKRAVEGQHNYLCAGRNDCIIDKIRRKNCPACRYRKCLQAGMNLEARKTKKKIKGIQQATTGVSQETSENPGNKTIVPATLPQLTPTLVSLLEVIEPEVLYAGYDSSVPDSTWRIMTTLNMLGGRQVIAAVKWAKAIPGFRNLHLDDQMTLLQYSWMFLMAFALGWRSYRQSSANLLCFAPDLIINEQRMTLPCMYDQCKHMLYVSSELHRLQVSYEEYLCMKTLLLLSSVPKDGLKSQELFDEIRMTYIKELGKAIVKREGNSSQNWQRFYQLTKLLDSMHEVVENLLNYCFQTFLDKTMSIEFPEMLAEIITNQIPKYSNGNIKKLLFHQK
Method: (§1) CV-1 cells (African green monkey kidney fibroblasts) were cultured in the presence of Dulbecco's Modified Eagle Medium (DMEM) supplemented with 10% charcoal resinstripped fetal bovine serum then transferred to 96-well microtiter plates one day prior to transfection.
(§2) Three to four replicates were used for each sample.
(§3) After 40 hours, the cells were washed with PBS, lysed with a Triton X-100-based buffer and assayed for LUC and β-Gal activities using a luminometer or spectrophotometer, respectively. For each replicate, the normalized response (NR) was calculated as: LUC response/β-Gal rate where β-Gal rate = β-Gal•1x10^-5/β-Gal incubation time.

PR = target: T2, PR (Homo sapiens, UniProt P06401); assay: cell-based
T2 sequence (P06401 1-933): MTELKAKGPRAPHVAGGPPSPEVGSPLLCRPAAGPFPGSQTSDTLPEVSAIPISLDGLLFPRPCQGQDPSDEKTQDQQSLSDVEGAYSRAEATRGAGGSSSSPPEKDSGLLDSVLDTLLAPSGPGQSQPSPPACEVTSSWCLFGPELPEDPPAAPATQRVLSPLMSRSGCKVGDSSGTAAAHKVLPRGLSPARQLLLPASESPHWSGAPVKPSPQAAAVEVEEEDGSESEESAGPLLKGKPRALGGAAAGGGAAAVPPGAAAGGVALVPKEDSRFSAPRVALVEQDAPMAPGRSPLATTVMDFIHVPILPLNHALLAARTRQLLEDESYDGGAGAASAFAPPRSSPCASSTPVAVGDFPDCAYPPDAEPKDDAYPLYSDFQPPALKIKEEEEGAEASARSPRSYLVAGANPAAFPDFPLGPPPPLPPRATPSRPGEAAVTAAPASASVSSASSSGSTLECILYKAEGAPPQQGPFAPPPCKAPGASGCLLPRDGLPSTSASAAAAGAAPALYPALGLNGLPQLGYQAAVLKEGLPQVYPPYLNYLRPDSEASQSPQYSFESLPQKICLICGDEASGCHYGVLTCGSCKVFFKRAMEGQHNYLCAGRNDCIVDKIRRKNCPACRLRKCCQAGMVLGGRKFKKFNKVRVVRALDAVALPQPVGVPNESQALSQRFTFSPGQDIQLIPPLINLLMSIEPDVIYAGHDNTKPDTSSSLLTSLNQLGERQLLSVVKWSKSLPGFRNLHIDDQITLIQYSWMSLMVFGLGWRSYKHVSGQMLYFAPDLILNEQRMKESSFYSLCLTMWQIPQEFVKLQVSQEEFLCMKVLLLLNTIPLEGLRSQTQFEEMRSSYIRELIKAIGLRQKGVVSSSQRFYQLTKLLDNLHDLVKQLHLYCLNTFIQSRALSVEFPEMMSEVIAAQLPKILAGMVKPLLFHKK

MR = target: T3, MR (Homo sapiens, UniProt P08235); assay: Co-transfection assay, MR antagonist mode; type: cell-based
T3 construct: expressed in transfected cells; host or cells: CV-1 cells
T3 sequence (P08235 1-984): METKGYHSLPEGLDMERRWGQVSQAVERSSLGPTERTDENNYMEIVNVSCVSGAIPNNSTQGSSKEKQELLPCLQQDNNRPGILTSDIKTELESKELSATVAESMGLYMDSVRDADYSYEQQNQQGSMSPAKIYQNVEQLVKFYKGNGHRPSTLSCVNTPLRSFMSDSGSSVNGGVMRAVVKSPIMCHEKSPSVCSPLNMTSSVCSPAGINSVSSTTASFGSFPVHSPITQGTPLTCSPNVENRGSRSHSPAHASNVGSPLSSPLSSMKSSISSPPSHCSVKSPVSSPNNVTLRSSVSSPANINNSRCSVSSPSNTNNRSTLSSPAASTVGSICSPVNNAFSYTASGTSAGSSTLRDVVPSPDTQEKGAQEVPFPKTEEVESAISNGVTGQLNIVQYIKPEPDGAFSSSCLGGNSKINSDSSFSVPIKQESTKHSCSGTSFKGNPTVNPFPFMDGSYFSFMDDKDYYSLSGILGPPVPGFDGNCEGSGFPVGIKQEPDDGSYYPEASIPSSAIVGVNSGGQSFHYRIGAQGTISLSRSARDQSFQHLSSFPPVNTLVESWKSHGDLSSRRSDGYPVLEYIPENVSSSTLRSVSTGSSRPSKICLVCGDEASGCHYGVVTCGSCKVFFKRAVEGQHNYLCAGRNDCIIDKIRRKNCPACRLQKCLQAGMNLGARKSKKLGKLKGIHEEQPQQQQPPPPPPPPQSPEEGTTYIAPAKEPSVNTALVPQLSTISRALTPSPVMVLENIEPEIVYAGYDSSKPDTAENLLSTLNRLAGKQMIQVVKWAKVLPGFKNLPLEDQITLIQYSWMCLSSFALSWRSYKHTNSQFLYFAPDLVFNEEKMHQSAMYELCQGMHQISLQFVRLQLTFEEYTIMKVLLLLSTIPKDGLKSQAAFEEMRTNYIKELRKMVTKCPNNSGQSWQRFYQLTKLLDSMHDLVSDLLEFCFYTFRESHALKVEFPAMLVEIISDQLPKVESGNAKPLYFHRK
Method: as §1, §2, §3

ER [1] = target: T4, ER (Homo sapiens, UniProt P03372); assay: Co-transfection assay, ER agonist mode; type: cell-based
T4 construct: expressed in transfected cells; host or cells: CV-1 cells
Method: as §1, §2, §3

ER [2] = target: T4, ER; assay: Co-transfection assay, ER antagonist mode; type: cell-based
Method: as §1, §2, §3

T4 sequence (P03372 whole entry): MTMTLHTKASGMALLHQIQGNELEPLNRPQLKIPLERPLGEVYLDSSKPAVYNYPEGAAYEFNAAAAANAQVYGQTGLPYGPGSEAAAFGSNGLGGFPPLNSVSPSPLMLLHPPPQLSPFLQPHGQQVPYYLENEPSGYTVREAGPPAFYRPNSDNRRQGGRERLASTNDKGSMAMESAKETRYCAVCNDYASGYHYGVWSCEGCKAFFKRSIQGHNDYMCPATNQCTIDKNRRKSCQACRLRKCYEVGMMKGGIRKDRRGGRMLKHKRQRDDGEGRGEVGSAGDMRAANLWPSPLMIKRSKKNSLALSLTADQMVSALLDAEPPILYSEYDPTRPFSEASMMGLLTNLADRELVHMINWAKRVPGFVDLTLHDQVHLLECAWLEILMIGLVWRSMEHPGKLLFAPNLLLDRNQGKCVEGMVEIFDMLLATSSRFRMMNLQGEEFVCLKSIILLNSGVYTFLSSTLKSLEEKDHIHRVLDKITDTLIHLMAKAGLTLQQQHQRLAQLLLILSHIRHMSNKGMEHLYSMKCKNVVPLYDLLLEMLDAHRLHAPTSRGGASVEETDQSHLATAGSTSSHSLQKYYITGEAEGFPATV

CC12CCCN1c1cc3nc(O)cc(C(F)(F)F)c3cc1CC2 (racemic) [Compound 101, (R/S)-6,7,7a,11-Tetrahydro-7a-methyl-4-trifluoromethyl-2-pyridono[5,6-g]pyrrolidino[1,2-a]quinoline]
> 10 µM: IC50 (GR) | IC50 (PR) | IC50 (MR) | EC50 (ER [1]) | IC50 (ER [2])

CC12CCCN1c1cc3[nH]c(=O)c(F)c(C(F)(F)F)c3cc1CC2 (racemic) [Compound 102, (R/S)-3-Fluoro-6,7,7a,11-tetrahydro-7a-methyl-4-trifluoromethyl-2-pyridono[5,6-g]pyrrolidino[1,2-a]quinoline]
> 10 µM: IC50 (GR) | IC50 (MR) | EC50 (ER [1]) | IC50 (ER [2])

Reference: patent publication EP0918774B9, “ANDROGEN RECEPTOR MODULATOR COMPOUNDS AND METHODS” (LIGAND PHARMACEUTICALS INCORPORATED, priority 1996, dated 1997)
